Assay in all cases: isothermal titration calorimetry
Holding throughout (type): binding

Assay [1] addresses T1, human eEFSec (Homo sapiens, UniProt P57772).
T1 construct: intact full-length, N-terminal 6xHis tag (pET15b, no tag removal described), E. coli Lemo21(DE3); monomer in solution; SeMet form also made for phasing
T1 sequence (P57772 1-596): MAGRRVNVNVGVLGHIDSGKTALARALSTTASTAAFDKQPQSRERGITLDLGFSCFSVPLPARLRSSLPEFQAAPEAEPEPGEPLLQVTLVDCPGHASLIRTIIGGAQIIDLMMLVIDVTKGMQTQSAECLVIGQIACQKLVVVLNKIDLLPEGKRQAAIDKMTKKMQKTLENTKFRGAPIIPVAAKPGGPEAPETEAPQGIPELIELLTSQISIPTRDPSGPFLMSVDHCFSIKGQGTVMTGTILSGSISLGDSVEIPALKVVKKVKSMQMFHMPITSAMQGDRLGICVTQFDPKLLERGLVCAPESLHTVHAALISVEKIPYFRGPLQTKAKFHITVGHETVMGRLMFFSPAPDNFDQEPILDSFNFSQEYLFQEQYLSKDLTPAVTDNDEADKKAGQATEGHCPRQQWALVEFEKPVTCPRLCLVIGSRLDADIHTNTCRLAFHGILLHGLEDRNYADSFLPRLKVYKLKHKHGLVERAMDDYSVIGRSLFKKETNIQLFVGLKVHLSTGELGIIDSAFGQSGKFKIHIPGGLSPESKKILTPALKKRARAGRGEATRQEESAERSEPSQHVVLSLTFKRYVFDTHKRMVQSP

Assay [2] deals with T2, human eEFSec (Homo sapiens, UniProt P57772, D92A).
T2 construct: intact full-length, N-terminal 6xHis tag (pET15b, no tag removal described), E. coli Lemo21(DE3); monomer in solution; SeMet form also made for phasing
T2 sequence (P57772 1-596 D92A): T1 sequence (P57772 1-596) with D92A

The target in assay [3] is T3, human eEFSec (Homo sapiens, UniProt P57772, H96A).
T3 construct: intact full-length, N-terminal 6xHis tag (pET15b, no tag removal described), E. coli Lemo21(DE3); monomer in solution; SeMet form also made for phasing
T3 sequence (P57772 1-596 H96A): T1 sequence (P57772 1-596) with H96A

The target in assay [4] is T4, human eEFSec (Homo sapiens, UniProt P57772, T48A).
T4 construct: intact full-length, N-terminal 6xHis tag (pET15b, no tag removal described), E. coli Lemo21(DE3); monomer in solution; SeMet form also made for phasing
T4 sequence (P57772 1-596 T48A): T1 sequence (P57772 1-596) with T48A

Residue numbers refer to the chain shown, from its start.

The compound `Nc1nc2c(ncn2[C@@H]2O[C@H](COP(=O)(O)OP(=O)(O)NP(=O)(O)O)[C@@H](O)[C@H]2O)c(=O)[nH]1` [GDPNP] registered a Kd on human eEFSec [1] of 1200 ± 470 nM.
As to `Nc1nc2c(ncn2[C@@H]2O[C@H](COP(=O)(O)OP(=O)(O)OP(=O)(O)O)[C@@H](O)[C@H]2O)c(=O)[nH]1` [GTP], the Kd on human eEFSec [2] was 8470 ± 490 nM; on human eEFSec [1] it was 1210 ± 260 nM; on human eEFSec [3] it was 1600 ± 750 nM; at human eEFSec [4], 1820 ± 110 nM.
`Nc1nc2c(ncn2[C@@H]2O[C@H](COP(=O)(O)OP(=O)(O)OP(O)(O)=S)[C@@H](O)[C@H]2O)c(=O)[nH]1` [GTPγS]: on human eEFSec [1], binding was characterised by a dissociation constant (Kd) of 480 ± 60 nM.
On to `Nc1nc(O)c2ncn([C@@H]3O[C@H](COP(=O)(O)OP(=O)(O)C[P+]([O-])(O)O)[C@@H](O)[C@H]3O)c2n1` [GDPCP], for which the Kd on human eEFSec [1] came out at 1850 ± 240 nM.
Regarding `Nc1nc2c(ncn2[C@@H]2O[C@H](COP(=O)(O)OP(=O)(O)O)[C@@H](O)[C@H]2O)c(=O)[nH]1` [GDP], the Kd was 1500 ± 130 nM at human eEFSec [2], 190 ± 50 nM on human eEFSec [1], 1300 ± 240 nM at human eEFSec [3] and 240 ± 50 nM on human eEFSec [4].

For the origin of these results see publication PMC5059743, “Crystal structures of the human elongation factor eEFSec suggest a non-canonical mechanism for selenocysteine incorporation” (Nature Communications, 2016).
